Values of other authors, collected in US11549199B2, “Active apparel and fabric and coverings” (priority 2017, dated 2023).

Tested on: gram-positive and gram-negative bacteria

## Poly-hexamethylene biguanide (PHMB) hydrochloride
  activity against gram-positive and gram-negative bacteria: active
